Results: patent publication US20250018046A1, “COMPOUNDS FOR TARGETING DEGRADATION OF IRAK4 PROTEINS” (BIOGEN MA INC, priority 2021, published 2025)

The compounds below were run against T1, IRAK4 (Homo sapiens, UniProt Q9NWZ3) (assay: IRAK4 degradation assay using the HiBiT Method). Conditions: 293T cells expressing HiBiT-tagged IRAK4; 6-hour incubation; Nano-Glo HiBiT Lytic Assay luminescence.
T1 construct: knocking-in a HiBiT fusion tag into the C-terminal of the IRAK4 gene in 293T cells; host or cells: 293T cells, knock-in of HiBiT at the endogenous IRAK4 locus
T1 sequence (Q9NWZ3 1-460): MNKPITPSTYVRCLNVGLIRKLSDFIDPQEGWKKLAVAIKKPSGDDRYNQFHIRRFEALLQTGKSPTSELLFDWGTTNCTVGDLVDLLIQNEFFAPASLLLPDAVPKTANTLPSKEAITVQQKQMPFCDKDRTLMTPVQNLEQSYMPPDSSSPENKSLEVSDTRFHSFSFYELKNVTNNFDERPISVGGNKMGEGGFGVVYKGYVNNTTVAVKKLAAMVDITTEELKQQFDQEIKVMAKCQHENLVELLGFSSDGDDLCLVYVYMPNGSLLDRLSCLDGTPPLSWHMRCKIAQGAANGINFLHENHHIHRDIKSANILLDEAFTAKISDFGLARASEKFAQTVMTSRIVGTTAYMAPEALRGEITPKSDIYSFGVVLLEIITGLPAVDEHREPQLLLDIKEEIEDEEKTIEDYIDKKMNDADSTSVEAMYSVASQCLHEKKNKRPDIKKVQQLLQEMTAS
Assay type: cell-based
In short: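 HEK293T cells with HiBiT knocked into the IRAK4 C-terminus, 10,000 cells per well, treated with an 11-point half-log series […] in duplicate for 6 hours at 37° C., 5% CO2. Remaining IRAK4 quantified by Nano-Glo HiBiT lytic luminescence against DMSO controls.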
In the case of `CC(C)Oc1cc2nc([C@H]3CC[C@H](CN(C)C4CCN(c5ccc(NC6CCC(=O)NC6=O)cc5)CC4)CC3)cn2cc1NC(=O)c1cccc(C(F)(F)F)n1` (some centres unmarked) [Example 36, N-[2-[4-[[[1-[4-[(2,6-dioxo-3-piperidyl)amino]phenyl]-4-piperidyl]-methyl-amino]methyl]cyclohexyl]-7-isopropoxy-imidazo[1,2-a]pyridin-6-yl]-6-(trifluoromethyl)pyridine-2-carboxamide], the DC50 is reported as 10 to 100 nM.
Compound `CC(C)Oc1cc2nc([C@H]3CC[C@H](CN4CCC(c5cccc6c5n(C)c(=O)n6C5CCC(=O)NC5=O)CC4)CC3)cn2cc1NC(=O)c1cccc(C(F)(F)F)n1` (some centres unmarked) [Example 37, N-[2-[4-[[4-[1-(2,6-dioxo-3-piperidyl)-3-methyl-2-oxo-benzimidazol-4-yl]-1-piperidyl]methyl]cyclohexyl]-7-isopropoxy-imidazo[1,2-a]pyridin-6-yl]-6-(trifluoromethyl)pyridine-2-carboxamide] has a DC50 of 10 to 100 nM.
`CC(C)Oc1cc2nc([C@H]3CC[C@H](CN4CCC(c5cccc(NC6CCC(=O)NC6=O)c5F)CC4)CC3)cn2cc1NC(=O)c1cccc(C(F)(F)F)n1` (some centres unmarked) [Example 38, N-[2-[4-[[4-[3-[(2,6-dioxo-3-piperidyl)amino]-2-fluoro-phenyl]-1-piperidyl]methyl]cyclohexyl]-7-isopropoxy-imidazo[1,2-a]pyridin-6-yl]-6-(trifluoromethyl)pyridine-2-carboxamide] was tested, and the DC50 was 100 to 500 nM.
For `CC(C)Oc1cc2nc([C@H]3CC[C@H](CN4CCC(c5cccc(NC6CCC(=O)NC6=O)c5)CC4)CC3)cn2cc1NC(=O)c1cccc(C(F)(F)F)n1` (some centres unmarked) [Example 39, N-[2-[4-[[4-[3-[(2,6-dioxo-3-piperidyl)amino]phenyl]-1-piperidyl]methyl]cyclohexyl]-7-isopropoxy-imidazo[1,2-a]pyridin-6-yl]-6-(trifluoromethyl)pyridine-2-carboxamide], the DC50 was 100 to 500 nM.
Work on `CC(C)Oc1cc2nc([C@H]3CC[C@H](CN(C)C4CCN(c5ccc(C6CCC(=O)NC6=O)cc5)CC4)CC3)cn2cc1NC(=O)c1cccc(C(F)(F)F)n1` (some centres unmarked) [Example 40, N-[2-[4-[[[1-[4-(2,6-dioxo-3-piperidyl)phenyl]-4-piperidyl]-methyl-amino]methyl]cyclohexyl]-7-isopropoxy-imidazo[1,2-a]pyridin-6-yl]-6-(trifluoromethyl)pyridine-2-carboxamide] yielded a DC50 of 100 to 500 nM.
With `CC(C)Oc1cc2nc([C@H]3CC[C@H](CN4CCC(c5ccc(C6CCC(=O)NC6=O)cc5F)CC4)CC3)cn2cc1NC(=O)c1cccc(C(F)(F)F)n1` (some centres unmarked) [Example 41, N-[2-[4-[[4-[4-(2,6-dioxo-3-piperidyl)-2-fluoro-phenyl]-1-piperidyl]methyl]cyclohexyl]-7-isopropoxy-imidazo[1,2-a]pyridin-6-yl]-6-(trifluoromethyl)pyridine-2-carboxamide] the DC50 was 100 to 500 nM.
Compound `CC(C)Oc1cc2nc([C@H]3CC[C@H](CN(C)C4CCN(c5cccc6c5n(C)c(=O)n6C5CCC(=O)NC5=O)CC4)CC3)cn2cc1NC(=O)c1cccc(C(F)(F)F)n1` (some centres unmarked) [Example 42, N-[2-[4-[[[1-[1-(2,6-dioxo-3-piperidyl)-3-methyl-2-oxo-benzimidazol-4-yl]-4-piperidyl]-methyl-amino]methyl]cyclohexyl]-7-isopropoxy-imidazo[1,2-a]pyridin-6-yl]-6-(trifluoromethyl)pyridine-2-carboxamide] has a DC50 of 100 to 500 nM.
Work on `CC(C)Oc1cc2nc([C@H]3CC[C@H](CN(C)C4CCN(c5cccc(C6CCC(=O)NC6=O)c5)CC4)CC3)cn2cc1NC(=O)c1cccc(C(F)(F)F)n1` (some centres unmarked) [Example 43, N-[2-[4-[[[1-[3-(2,6-dioxo-3-piperidyl)phenyl]-4-piperidyl]-methyl-amino]methyl]cyclohexyl]-7-isopropoxy-imidazo[1,2-a]pyridin-6-yl]-6-(trifluoromethyl)pyridine-2-carboxamide] yielded a DC50 of 100 to 500 nM.
`CC(C)Oc1cc2nc([C@H]3CC[C@H](CN(C)C4CCN(c5cccc(NC6CCC(=O)NC6=O)c5)CC4)CC3)cn2cc1NC(=O)c1cccc(C(F)(F)F)n1` (some centres unmarked) [Example 44, N-[2-[4-[[[1-[3-[(2,6-dioxo-3-piperidyl)amino]phenyl]-4-piperidyl]-methyl-amino]methyl]cyclohexyl]-7-isopropoxy-imidazo[1,2-a]pyridin-6-yl]-6-(trifluoromethyl) pyridine-2-carboxamide] gave a DC50 of 100 to 500 nM.
For `CC(C)Oc1cc2nc([C@H]3CC[C@H](CN(C)C4CCN(c5ccc6c(c5)n(C)c(=O)n6C5CCC(=O)NC5=O)CC4)CC3)cn2cc1NC(=O)c1cccc(C(F)(F)F)n1` (some centres unmarked) [Example 45, N-[2-[4-[[[1-[1-(2,6-dioxo-3-piperidyl)-3-methyl-2-oxo-benzimidazol-5-yl]-4-piperidyl]-methyl-amino]methyl]cyclohexyl]-7-isopropoxy-imidazo[1,2-a]pyridin-6-yl]-6-(trifluoromethyl)pyridine-2-carboxamide], the DC50 was 500 to 1000 nM.
Work on `CC(C)Oc1cc2nc([C@H]3CC[C@H](CN(C)C4CCN(Cc5cccc(NC6CCC(=O)NC6=O)c5)CC4)CC3)cn2cc1NC(=O)c1cccc(C(F)(F)F)n1` (some centres unmarked) [Example 46, N-[2-[4-[[[1-[[3-[(2,6-dioxo-3-piperidyl)amino]phenyl]methyl]-4-piperidyl]-methyl-amino]methyl]cyclohexyl]-7-isopropoxy-imidazo[1,2-a]pyridin-6-yl]-6-(trifluoromethyl) pyridine-2-carboxamide] yielded a DC50 of over 1000 nM.
With `CC(C)Oc1cc2nc(C3CCC(CN4CCC(c5ccc6c(c5)n(C)c(=O)n6C5CCC(=O)NC5=O)CC4)CC3)cn2cc1NC(=O)c1cccc(C(F)(F)F)n1` (centres unmarked) [Example 47, N-[2-[4-[[4-[1-(2,6-dioxo-3-piperidyl)-3-methyl-2-oxo-benzimidazol-5-yl]-1-piperidyl]methyl]cyclohexyl]-7-isopropoxy-imidazo[1,2-a]pyridin-6-yl]-6-(trifluoromethyl)pyridine-2-carboxamide] the DC50 was 100 to 500 nM.
`CC(C)Oc1cc2nn(C3CCN(CC(=O)N4CCC(c5ccc(NC6CCC(=O)NC6=O)cc5)CC4)CC3)cc2cc1NC(=O)c1cccc(C(F)(F)F)n1` (centres unmarked) [Example 49, N-(2-(1-(2-(4-(4-((2,6-dioxopiperidin-3-yl)amino)phenyl)piperidin-1-yl)-2-oxoethyl)piperidin-4-yl)-6-isopropoxy-2H-indazol-5-yl)-6-(trifluoromethyl) picolinamide] gave a DC50 of 10 to 100 nM.
Compound `CC(C)Oc1cc2nn(C3CCN(CC(=O)N4CCC(c5ccc(NC6CCC(=O)NC6=O)cc5F)CC4)CC3)cc2cc1NC(=O)c1cccc(C(F)(F)F)n1` (centres unmarked) [Example 50, N-[2-[1-[2-[4-[4-[(2,6-dioxo-3-piperidyl)amino]-2-fluoro-phenyl]-1-piperidyl]-2-oxo-ethyl]-4-piperidyl]-6-isopropoxy-indazol-5-yl]-6-(trifluoromethyl)pyridine-2-carboxamide] has a DC50 of 10 to 100 nM.
Compound `CC(C)Oc1cc2nn(C3CCN(C(=O)CN4CCC(c5ccc(NC6CCC(=O)NC6=O)cc5)CC4)CC3)cc2cc1NC(=O)c1cccc(C(F)(F)F)n1` (centres unmarked) [Example 51, N-[2-[1-[2-[4-[4-[(2,6-dioxo-3-piperidyl)amino]phenyl]-1-piperidyl]acetyl]-4-piperidyl]-6-isopropoxy-indazol-5-yl]-6-(trifluoromethyl)pyridine-2-carboxamide] has a DC50 of 10 to 100 nM.
Work on `CC(C)Oc1cc2nn(C3CCN(C(=O)CN4CCC(c5ccc(NC6CCC(=O)NC6=O)cc5F)CC4)CC3)cc2cc1NC(=O)c1cccc(C(F)(F)F)n1` (centres unmarked) [Example 52, N-(2-(1-(2-(4-(4-((2,6-dioxopiperidin-3-yl)amino)-2-fluorophenyl)piperidin-1-yl)acetyl)piperidin-4-yl)-6-isopropoxy-2H-indazol-5-yl)-6-(trifluoromethyl)picolinamide] yielded a DC50 of 10 to 100 nM.
`CC(C)Oc1cc2nc(C3CCN(CC(=O)N4CCC(c5ccc(NC6CCC(=O)NC6=O)cc5)CC4)CC3)cn2cc1NC(=O)c1ccncn1` (centres unmarked) [Example 53, N-[2-[1-[2-[4-[4-[(2,6-dioxo-3-piperidyl)amino]phenyl]-1-piperidyl]-2-oxo-ethyl]-4-piperidyl]-7-isopropoxy-imidazo[1,2-a]pyridin-6-yl]pyrimidine-4-carboxamide] showed a DC50 of 100 to 500 nM.
`CC(C)Oc1cc2nc(C3CCN(CC(=O)N4CCC(c5ccc(NC6CCC(=O)NC6=O)cc5)CC4)CC3)cn2cc1NC(=O)c1cccc(C(F)(F)F)c1` (centres unmarked) [Example 54, N-[2-[1-[2-[4-[4-[(2,6-dioxo-3-piperidyl)amino]phenyl]-1-piperidyl]-2-oxo-ethyl]-4-piperidyl]-7-isopropoxy-imidazo[1,2-a]pyridin-6-yl]-3-(trifluoromethyl)benzamide] showed a DC50 of 100 to 500 nM.
For `CC(C)Oc1cc2nc(C3CCN(CC(=O)N4CCC(c5ccc(NC6CCC(=O)NC6=O)cc5)CC4)CC3)cn2cc1NC(=O)c1ccccn1` (centres unmarked) [Example 55, N-[2-[1-[2-[4-[4-[(2,6-dioxo-3-piperidyl)amino]phenyl]-1-piperidyl]-2-oxo-ethyl]-4-piperidyl]-7-isopropoxy-imidazo[1,2-a]pyridin-6-yl]pyridine-2-carboxamide], the DC50 was 10 to 100 nM.
In the case of `CC(C)Oc1cc2nc(C3CCN(CC(=O)N4CCC(c5ccc(NC6CCC(=O)NC6=O)cc5)CC4)CC3)cn2cc1NC(=O)c1ccccc1` (centres unmarked) [Example 56, N-[2-[1-[2-[4-[4-[(2,6-dioxo-3-piperidyl)amino]phenyl]-1-piperidyl]-2-oxo-ethyl]-4-piperidyl]-7-isopropoxy-imidazo[1,2-a]pyridin-6-yl]benzamide], the DC50 is reported as 100 to 500 nM.
